Laboratory results published in US20240083900A1, “PYRAZOLO[1,5-A]PYRAZINE DERIVATIVES AS BTK INHIBITORS” (BIOGEN MA INC., priority 2020, published 2024).
Like-named read-outs stand apart in the source and are kept apart here.

Key:
[1] = system: CD69 expression on CD19+ B cells in human whole blood stimulated with anti-human IgD; assay: In Vitro whole blood CD69 Assay; assay type: cell-based
BTK = BTK (Homo sapiens (Human), UniProt Q06187); assay: In Vitro BTK Kinase Assay: Btk-PolyGAT-LS Assay; assay type: biochemical; settings: BTK enzyme 0.25 nM, ATP 10 μM, polyGAT 100 nM, 30 minutes incubation, TRF readout; read-out: IC50
BTK, sequence (Q06187 whole entry): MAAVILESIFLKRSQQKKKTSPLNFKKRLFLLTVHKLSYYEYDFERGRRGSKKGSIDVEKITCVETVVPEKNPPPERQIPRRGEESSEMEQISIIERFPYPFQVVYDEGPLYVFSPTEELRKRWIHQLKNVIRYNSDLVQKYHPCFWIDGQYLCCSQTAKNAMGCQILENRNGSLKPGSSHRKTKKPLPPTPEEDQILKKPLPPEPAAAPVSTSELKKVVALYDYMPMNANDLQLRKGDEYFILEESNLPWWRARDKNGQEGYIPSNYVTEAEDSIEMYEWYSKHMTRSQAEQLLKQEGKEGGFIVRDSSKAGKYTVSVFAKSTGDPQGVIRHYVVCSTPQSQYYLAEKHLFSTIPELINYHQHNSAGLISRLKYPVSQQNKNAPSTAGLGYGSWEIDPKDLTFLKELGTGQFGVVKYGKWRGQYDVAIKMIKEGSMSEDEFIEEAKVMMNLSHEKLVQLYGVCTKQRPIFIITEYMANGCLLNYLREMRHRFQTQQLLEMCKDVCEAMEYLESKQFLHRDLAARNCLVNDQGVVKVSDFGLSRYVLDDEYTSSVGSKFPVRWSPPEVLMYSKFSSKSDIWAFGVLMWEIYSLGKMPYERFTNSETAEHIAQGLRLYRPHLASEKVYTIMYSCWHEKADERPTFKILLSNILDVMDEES
In short: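 Human BTK activity was measured with final 10 μM ATP and 100 nM polyGAT substrate in pH 7.5 Tris buffer with 10 mM MgCl2, DTT, Triton X-100 and casein.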

[2] = Homo sapiens, B-cell, human heparinized whole blood, anti-human IgD stimulation overnight, percentage of CD19+ B cells expressing CD69, flow cytometry, read-out: IC50
[3] = human heparinized whole blood, anti-human IgD stimulation overnight, percentage of CD19+ B cells expressing CD69, flow cytometry, read-out: IC50
[4] = Homo sapiens, B-cell, human heparinized whole blood, anti-human IgD stimulation overnight, percentage of CD19+ B cells expressing CD69, flow cytometry

| IC50 [1, 2] | Structure (SMILES) | IC50 (BTK) | also measured |
| --- | --- | --- | --- |
| – | CC#CC(=O)N(C)[C@@H]1C[C@@H]2C[C@H]1[C@@H](Oc1nc(-c3cnn(C)c3)cn3nccc13)C2 (racemic) [Example 123, N-methyl-N-((1S,2S,4R,6R)-6-((6-(1-methyl-1H-pyrazol-4-yl)pyrazolo[1,5-a]pyrazin-4-yl)oxy)bicyclo[2.2.1]heptan-2-yl)but-2-ynamide and N-methyl-N-((1R,2R,4S,6S)-6-((6-(1-methyl-1H-pyrazol-4-y)pyrazolo[1,5-a]pyrazin-4-yl)oxy)bicyclo[2.2.1]heptan-2-y)but-2-ynamide] | 1 to 10 nM | IC50 [1, 3]: 1000 to 10000 nM |
| – | CN[C@H]1C[C@@](C)(Oc2nc(-c3cnn(C)c3)cn3nccc23)C1(C)C (racemic) [Example 139, racemic (1S,3R)—N,2,2,3-tetramethyl-3-((6-(1-methyl-1H-pyrazol-4-yl)pyrazolo[1,5-a]pyrazin-4-yl)oxy)cyclobutan-1-amine] | < 1 nM | IC50 [1, 3]: < 1000 nM |
| – | C#CC(=O)NCC1CCCCN1c1nc(-c2cnn(C)c2)cn2nccc12 (single isomer, unassigned) [Example 26 E1, N-[[1-[6-(1-methylpyrazol-4-yl)pyrazolo[1,5-a]pyrazin-4-yl]-2-piperidyl]methyl]prop-2-ynamide] | 10 to 1000 nM | IC50 ([1]; human heparinized whole blood, anti-human IgD stimulation overnight, percentage of CD19+ B cells expressing CD69, flow cytometry, listed as 26 E1, read-out: IC50): > 10000 nM |
| – | C#CC(=O)NCC1CCCCN1c1nc(-c2cnn(C)c2)cn2nccc12 (single isomer, unassigned) [Example 26 E2, N-[[1-[6-(1-methylpyrazol-4-yl)pyrazolo[1,5-a]pyrazin-4-yl]-2-piperidyl]methyl]prop-2-ynamide] | < 1 nM | IC50 ([1]; human heparinized whole blood, anti-human IgD stimulation overnight, percentage of CD19+ B cells expressing CD69, flow cytometry, listed as 26 E2, read-out: IC50): < 1000 nM |
| < 1000 nM | C=CC(=O)N1CCC[C@@H](Oc2nc(-c3cnn(C)c3)cc3nccn23)CC1 (single isomer, unassigned) [Example 34, (S) or (R)-1-(4-((7-(1-methyl-1H-pyrazol-4-yl)imidazo[1,2-c]pyrimidin-5-yl)oxy)azepan-1-yl)prop-2-en-1-one] | 1 to 10 nM | – |
| 1000 to 10000 nM | C=CC(=O)N1CCC[C@@H](Oc2nc(-c3ccc(=O)n(C)c3)cn3nccc23)CC1 (single isomer, unassigned) [Example 71 E2] | 10 to 1000 nM | – |
| – | C=CC(=O)N1C[C@H]2C[C@@H](C1)[C@@H]2COc1cc(-c2cnn(C)c2)cn2ncc(F)c12 (single isomer, unassigned) [Example 85, 1-((1R,5S,6r) or (1R,5S,6s)-6-(((3-fluoro-6-(1-methyl-1H-pyrazol-4-yl)pyrazolo[1,5-a]pyridin-4-yl)oxy)methyl)-3-azabicyclo[3.1.1]heptan-3-yl)prop-2-en-1-one] | < 1 nM | IC50 [1, 3]: < 1000 nM |
| – | C=CC(=O)N(C)[C@@H]1C[C@@](C)(Oc2nc(-c3cnn(C)c3)cn3nccc23)[C@H]1C (single isomer, unassigned) [Example 108] | < 1 nM | IC50 [1, 4]: < 1000 nM |
| – | C=CC(=O)N(C)[C@H]1C[C@](C)(Oc2nc(-c3cnn(C)c3)cn3nccc23)[C@@H]1C (single isomer, unassigned) [Example 109] | 1 to 10 nM | IC50 [1, 4]: < 1000 nM |
| 1000 to 10000 nM | C=CC(=O)N1C[C@@H]2C[C@H](Oc3nc(-c4cnn(C)c4)cn4nccc34)C[C@H]1C2 [Example 168, 1-((1S,3S,5R)-3-((6-(1-methyl-1H-pyrazol-4-yl)pyrazolo[1,5-a]pyrazin-4-yl)oxy)-6-azabicyclo[3.2.1]octan-6-yl)prop-2-en-1-one] | – | – |
| 1000 to 10000 nM | C=CC(=O)N(C)[C@H]1C[C@H](Oc2nc(-c3cnn(C)c3)cn3nccc23)C1 [Example 185, N-methyl-N-((trans)-3-((6-(1-methyl-1H-pyrazol-4-yl)pyrazolo[1,5-a]pyrazin-4-yl)oxy)cyclobutyl)acrylamide] | – | – |
| < 1000 nM | C=CC(=O)N1CC[C@@H]2[C@H]1C[C@]2(C)Oc1nc(-c2cnn(C)c2)cn2nccc12 [Example 190, 1-((1R,5R,6S)-6-methyl-6-((6-(1-methyl-1H-pyrazol-4-yl)pyrazolo[1,5-a]pyrazin-4-yl)oxy)-2-azabicyclo[3.2.0]heptan-2-yl)prop-2-en-1-one] | – | – |
| 1000 to 10000 nM | C=CC(=O)N1CC[C@H]2[C@@H]1C[C@@]2(C)Oc1nc(-c2cnn(C)c2)cn2nccc12 [Example 191, 1-((1S,5S,6R)-6-methyl-6-((6-(1-methyl-1H-pyrazol-4-yl)pyrazolo[1,5-a]pyrazin-4-yl)oxy)-2-azabicyclo[3.2.0]heptan-2-yl)prop-2-en-1-one] | – | – |
| 1000 to 10000 nM | C=CC(=O)N1C[C@@H]2C[C@@](C)(Oc3nc(-c4cnn(C)c4)cn4nccc34)[C@@H]2C1 [Example 199, 1-((1R,5S,6R)-6-methyl-6-((6-(1-methyl-1H-pyrazol-4-yl)pyrazolo[1,5-a]pyrazin-4-yl)oxy)-3-azabicyclo[3.2.0]heptan-3-yl)prop-2-en-1-one] | – | – |
| < 1000 nM | C=CC(=O)N1C[C@H]2C[C@](C)(Oc3nc(-c4cnn(C)c4)cn4nccc34)[C@H]2C1 [Example 200, 1-((1S,5R,6S)-6-methyl-6-((6-(1-methyl-1H-pyrazol-4-yl)pyrazolo[1,5-a]pyrazin-4-yl)oxy)-3-azabicyclo[3.2.0]heptan-3-yl)prop-2-en-1-one] | – | – |
| < 1000 nM | C=CC(=O)N1C[C@@H]2[C@@H](COc3nc(-c4cnn(C)c4)cn4nccc34)[C@@H]2C1 [Example 214, 1-((1R,5S,6r)-6-(((6-(1-methyl-1H-pyrazol-4-yl)pyrazolo[1,5-a]pyrazin-4-yl)oxy)methyl)-3-azabicyclo[3.1.0]hexan-3-yl)prop-2-en-1-one] | – | – |
| 1000 to 10000 nM | C=CC(=O)N(C)[C@H]1C[C@@H](Oc2nc(-c3cnn(C)c3)cn3nccc23)C1 [Example 215, N-methyl-N-((cis)-3-((6-(1-methyl-1H-pyrazol-4-yl)pyrazolo[1,5-a]pyrazin-4-yl)oxy)cyclobutyl)acrylamide] | – | – |
| – | C=CC(=O)N(C)[C@H]1C[C@](C)(Oc2nc(-c3cnn(C)c3)cn3nccc23)C1 [Example 217, N-methyl-N-((1r,3r)-3-methyl-3-((6-(1-methyl-1H-pyrazol-4-yl)pyrazolo[1,5-a]pyrazin-4-yl)oxy)cyclobutyl)acrylamide] | – | IC50 ([1]; Homo sapiens, B-cell): 1000 to 10000 nM |
| 1000 to 10000 nM | C=CC(=O)N1C[C@@H]2[C@H](COc3nc(-c4cnn(C)c4)cn4nccc34)[C@@H]2C1 [Example 221, 1-((1R,5S,6s)-6-(((6-(1-methyl-1H-pyrazol-4-yl)pyrazolo[1,5-a]pyrazin-4-yl)oxy)methyl)-3-azabicyclo[3.1.0]hexan-3-yl)prop-2-en-1-one] | – | – |
| < 1000 nM | C=CC(=O)N(C)C12CCCC(Oc3nc(-c4cnn(C)c4)cn4nccc34)(C1)C2 [Example 225, N-methyl-N-(5-((6-(1-methyl-1H-pyrazol-4-yl)pyrazolo[1,5-a]pyrazin-4-yl)oxy)bicyclo[3.1.1]heptan-1-yl)acrylamide] | – | – |
| – | C=CC(=O)N(C)[C@H]1C[C@@](C)(Oc2nc(-c3cnn(C)c3)cc3nccn23)C1 [Example 236, N-methyl-N-((1s,3s)-3-methyl-3-((7-(1-methyl-1H-pyrazol-4-yl)imidazo[1,2-c]pyrimidin-5-yl)oxy)cyclobutyl)acrylamide] | – | IC50 ([1]; Homo sapiens, B-cell): < 1000 nM |

| Structure (SMILES) | IC50 [1, 2] | IC50 (BTK) | also measured |
| --- | --- | --- | --- |
| C=CC(=O)N(C)[C@@H]1COC[C@H](Oc2nc(-c3cnn(C)c3)cn3nccc23)C1 (racemic) [Example 96, N-methyl-N-((cis)-5-((6-(1-methyl-1H-pyrazol-4-yl)pyrazolo[1,5-a]pyrazin-4-yl)oxy)tetrahydro-2H-pyran-3-yl)acrylamide] | < 1000 nM | < 1 nM | – |
| CN(C(=O)/C=C/C#N)[C@H]1CC[C@@H](Oc2nc(-c3cnn(C)c3)cn3nccc23)C1 (racemic) [Example 150, rac-(E)-3-cyano-N-methyl-N-((1R,3S)-3-((6-(1-methyl-1H-pyrazol-4-yl)pyrazolo[1,5-a]pyrazin-4-yl)oxy)cyclopentyl)acrylamide] | < 1000 nM | < 1 nM | – |
| C=CC(=O)N(C)[C@H]1CC[C@@H]1COc1nc(-c2cnn(C)c2)cn2nccc12 (relative stereo) [Example 129, trans-N-methyl-N-(2-(((6-(1-methyl-1H-pyrazol-4-yl)pyrazolo[1,5-a]pyrazin-4-yl)oxy)methyl)cyclobutyl)acrylamide] | 1000 to 10000 nM | 10 to 1000 nM | – |
| C=CC(=O)N1CCC[C@H](Oc2nc(-c3ccc(=O)n(C)c3)cn3nccc23)CC1 (single isomer, unassigned) [Example 71 E1] | < 1000 nM | 1 to 10 nM | – |
| C=CC(=O)N1CCCC(Oc2nc(-c3ccnc(OC)c3)cn3nccc23)CC1 (single isomer, unassigned) [Example 72 E1, 1-(4-((6-(2-methoxypyridin-4-yl)pyrazolo[1,5-a]pyrazin-4-yl)oxy)azepan-1-yl)prop-2-en-1-one] | 1000 to 10000 nM | < 1 nM | – |
| C=CC(=O)N(C)[C@@H]1C[C@@](C)(Oc2nc(-c3cnn(C)c3)cn3nccc23)[C@@H]1C (single isomer, unassigned) [Example 107] | < 1000 nM | 1 to 10 nM | – |
| C=CC(=O)N(C)[C@H]1CCC[C@@H](Oc2nc(-c3cnn(C)c3)cn3nccc23)C1 [Example 175, N-methyl-N-((1S,3R)-3-((6-(1-methyl-1H-pyrazol-4-yl)pyrazolo[1,5-a]pyrazin-4-yl)oxy)cyclohexyl)acrylamide] | < 1000 nM | – | – |
| C=CC(=O)N(C)[C@@H]1CCC[C@H](Oc2nc(-c3cnn(C)c3)cn3nccc23)C1 [Example 176, N-methyl-N—((1R,3S)-3-((6-(1-methyl-1H-pyrazol-4-yl)pyrazolo[1,5-a]pyrazin-4-yl)oxy)cyclohexyl)acrylamide] | 1000 to 10000 nM | – | – |
